Experimental findings from PubChem BioAssay (NCI) are described below.

Some test systems named below: 786-0 renal; HS 578T breast; BT-549 breast; DU-145 prostate; MDA-N; PC-3 prostate; MDA-MB-435; T-47D breast; P388 leukemia; DMS 273 small cell lung; SNB-78 CNS; HOP-18 NSCLC; SN12K1 renal; XF 498 CNS; DMS 114 small cell lung.
Common to all, as to assay: NCI tumour cell line growth inhibition, 48 h

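Following 48 hours of exposure in 96-well plates, responses at five concentrations were used to interpolate endpoints linearly. GI50 is the concentration that inhibits growth by half. Definition used: TGI = concentration required for complete inhibition of growth.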

As to `O=C1c2ccccc2-c2ccc(NC(=O)C3CCCCC3C(=O)O)cc21` (configuration not stated), the TGI in the assay with 786-0 renal, with HS 578T breast, in the assay with BT-549 breast, in the assay on DU-145 prostate, with MDA-N and in the assay with PC-3 prostate was over 100 µM throughout. Moreover, the TGI with MDA-MB-435 and with T-47D breast was over 100 µM in each case.
In the case of `O=CNc1cccc2c3c([nH]c12)CCCCCC3`, the TGI in the assay with P388 leukemia, in the assay with DMS 273 small cell lung, in the assay on SNB-78 CNS, with HOP-18 NSCLC, in the assay on SN12K1 renal and in the assay on XF 498 CNS was over 100 µM in each case. In the assay with DMS 114 small cell lung, this molecule registered a TGI of over 100 µM.
`CC(C)(C)OC(=O)NC(Cc1ccccc1)C(=O)N[C@H]1c2ccsc2/C(=N/O)[C@H]1O` (some centres not stated): the TGI in the assay with BT-549 breast, with DU-145 prostate, in the assay on MDA-N, in the assay on PC-3 prostate, in the assay on MDA-MB-435 and with T-47D breast was over 100 µM each time.
Turning to `CCOC(=O)C1C(c2cc(OC)c(O)c(OC)c2)c2cc3c(cc2OC1(C)O)OCO3` (configuration not stated), the TGI with DMS 273 small cell lung, in the assay on SNB-78 CNS, in the assay with HOP-18 NSCLC and in the assay with XF 498 CNS was over 100 µM each time.
Consider `C=C1C(=O)O[C@H]2C1[C@H](OC(=O)/C(C)=C\COC(C)=O)C[C@]1(CO1)[C@@H]1[C@H](O)[C@H]3O[C@@]3(C)[C@@H]12` (some centres not stated), for which the TGI in the assay on P388 leukemia is 18.4 µM; in the assay on DMS 273 small cell lung, over 63.2 µM; in the assay on SNB-78 CNS it was over 73.5 µM; in the assay with HOP-18 NSCLC, 41.4 µM; with SN12K1 renal, over 55.9 µM; in the assay with XF 498 CNS, 38.4 µM. The molecule also gave a TGI in the assay with DMS 114 small cell lung of 42.6 µM.
For `Cc1cc(NS(=O)(=O)c2ccc(Nc3c4ccccc4nc4c(C(=O)NCCN(C)C)ccc(Cl)c34)cc2)no1`, the TGI turned out to be 44 µM in the assay on SNB-78 CNS, 26.7 µM in the assay on XF 498 CNS and 13.9 µM in the assay on DMS 114 small cell lung.
On to `Cc1ccc2c(c1)c(=O)c1c(NCCN(C)C)ccc3nnn2c31`, for which the TGI with 786-0 renal was determined as 15.9 µM; with SNB-78 CNS, 24.2 µM; in the assay with HOP-18 NSCLC it was 50 µM; in the assay on DMS 114 small cell lung, 18.5 µM.
As to `CCCCc1ccc2[n+](c1)C(C(=O)OCC)=PC2` (configuration not stated), the TGI in the assay with 786-0 renal, in the assay with HS 578T breast, in the assay with BT-549 breast, with DU-145 prostate, with MDA-N and in the assay with PC-3 prostate was over 100 µM each time. The TGI with MDA-MB-435 was over 100 µM.
As for `COc1cc(N=Nc2cccc(S(=O)(=O)O)c2)c(C)cc1N=Nc1ccc(/C=C/c2ccc(N=[N+]([O-])c3ccc(/C=C/c4ccc(N=Nc5cc(C)c(N=Nc6cccc(S(=O)(=O)O)c6)cc5OC)cc4)c(S(=O)(=O)O)c3)cc2S(=O)(=O)O)cc1`, the TGI in the assay with P388 leukemia, in the assay with DMS 273 small cell lung, in the assay with HOP-18 NSCLC, in the assay on SN12K1 renal, with XF 498 CNS and in the assay with DMS 114 small cell lung was over 100 µM in each case.
On to `COC(=O)C(C)N1C(=O)c2ccccc2I1OC(C)=O` (configuration not stated), for which the GI50 was over 100 µM in the assay on HS 578T breast; over 100 µM in the assay with DU-145 prostate; over 100 µM in the assay with PC-3 prostate; over 100 µM in the assay on MDA-MB-435; 21 µM in the assay with T-47D breast. In addition, the TGI in the assay on HS 578T breast was over 100 µM; with DU-145 prostate, over 100 µM; in the assay with PC-3 prostate it was over 100 µM; in the assay on MDA-MB-435, over 100 µM; in the assay on T-47D breast, 82.6 µM.
